Reference: publication PMC8580996, “2-Oxoglutarate derivatives can selectively enhance or inhibit the activity of human oxygenases” (Nature Communications, 2021)
Where “and” joins values, the source holds several entries; their conditions need not be identical. Equal entries are not always repeated.

Target: FIH (Homo sapiens, UniProt Q9NWT6)
Experiment: FIH steady-state kinetic parameters (SPE-MS, initial hydroxylation rates)
Format: biochemical
Set-up: slope of initial reaction rate: unit not given here
Experimental: Final 2OG/2OG derivative concentrations are given in Supplementary Figs. 5 and 6. Reactions were monitored with a rate of ~1 sample/40 s using the same SPE-MS configuration as described above. Data were analyzed as described above and the slopes of the initial reaction rates (Supplementary Figs. 5 and 6) fitted to a Michaelis–Menten plot using non-linear regression (GraphPad Prism 5). […]
determine kinetic parameters for 2OG derivatives (continues on the following page). Maximum velocities (vapp ) and Michaelis constants (Kapp) of FIH were determined in independent triplicates for 2OG and the 2OG […]
SPE-MS as described in the Methods section. […]
acid (LAA), and 20 μM ammonium iron(II) sulfate hexahydrate (FAS, (NH4)2Fe(SO4)2·6H2O) in buffer (50 mM […]
Tris, 50 mM NaCl, pH 7.5, 20° C). […]
data are provided as a Source Data file. […]
concentrations of 2OG; (b) hydroxylation rates used to determine kinetic parameters of FIH for 2OG; (c) time […]
3-methyl-2OG (1); (d) hydroxylation rates used to determine kinetic parameters of FIH for 1; (e) time course of […]
2OG (12); (f) hydroxylation rates used to determine kinetic parameters of FIH for 12; (g) time course of the FIH- […]
(h) hydroxylation rates used to determine kinetic parameters of FIH for 14; (i) time course of the FIH-catalyzed […]
(carboxycarbonyl)cyclopentane-1-carboxylic acid (22); (j) hydroxylation rates used to determine kinetic parameters of FIH for 22.
Supplementary Figure 6. Hydroxylation rates of FIH-catalyzed CA1-20 hydroxylations used to determine kinetic parameters for 2OG derivatives (continues on the following page). Maximum velocities (vapp ) and […]
ammonium iron(II) sulfate hexahydrate (FAS, (NH4)2Fe(SO4)2·6H2O) in buffer (50 mM Tris, 50 mM NaCl, pH […]
Source data are provided as a Source […]
of 2OG; (b) hydroxylation rates used to determine kinetic parameters of FIH for 2OG; (c) time course of the FIH-catalyzed hydroxylation reaction of the CA1-20 peptide for the shown concentrations of 3-methyl-2OG (1); (d) hydroxylation rates used to determine kinetic parameters of FIH for 1; (e) time course of the FIH -catalyzed hydroxylation reaction of the CA 1-20 peptide for the shown concentrations of 4 -methyl-2OG (12); (f) hydroxylation rates used to determine kinetic parameters of FIH for 12; (g) time course of the FIH-catalyzed hydroxylation reaction of the CA1-20 peptide for the shown concentrations of 4-ethyl-2OG (14); (h) hydroxylation rates used to determine kinetic parameters of FIH for 14; (i) time course of the FIH-catalyzed hydroxylation reaction of the CA1-20 peptide for the shown concentrations of 3-(carboxycarbonyl)cyclopentane-1-carboxylic acid (22); (j) hydroxylation rates used to determine kinetic parameters of FIH for 22.

Chain of FIH (Q9NWT6 whole entry): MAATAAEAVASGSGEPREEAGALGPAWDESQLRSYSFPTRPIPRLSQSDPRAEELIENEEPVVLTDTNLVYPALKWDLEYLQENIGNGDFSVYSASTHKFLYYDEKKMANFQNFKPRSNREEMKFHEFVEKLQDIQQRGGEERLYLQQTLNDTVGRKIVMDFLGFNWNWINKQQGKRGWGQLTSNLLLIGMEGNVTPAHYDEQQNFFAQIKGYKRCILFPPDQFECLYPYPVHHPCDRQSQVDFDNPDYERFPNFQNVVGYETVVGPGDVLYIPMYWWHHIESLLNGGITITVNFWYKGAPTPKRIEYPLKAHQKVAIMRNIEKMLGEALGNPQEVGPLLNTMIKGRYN

SPE-MS determined concentration of hydroxylated HIF-1a peptide (4 uM compound 22, time 2.098 min): 0.04779 µM and 0.05783 µM and 0.03772 µM
SPE-MS determined concentration of hydroxylated HIF-1a peptide (4 uM compound 22, time 2.797 min): 0.05438 µM and 0.0588 µM and 0.03391 µM
SPE-MS determined concentration of hydroxylated HIF-1a peptide (4 uM compound 22 as cosubstrate, time 3.49667 min, replicates 1-3): 0.05919 µM and 0.07205 µM and 0.04053 µM
SPE-MS determined concentration of hydroxylated HIF-1a peptide (8 uM compound 22, time 0.699833 min): 0.02809 µM and 0.04706 µM and 0.04281 µM
SPE-MS determined concentration of hydroxylated HIF-1a peptide (8 uM compound 22, time 2.098 min): 0.0572 µM and 0.06337 µM and 0.07945 µM
SPE-MS determined concentration of hydroxylated HIF-1a peptide (8 uM compound 22, time 2.797 min): 0.05834 µM and 0.07508 µM and 0.08857 µM
SPE-MS determined concentration of hydroxylated HIF-1a peptide (8 uM compound 22 as cosubstrate, time 3.49667 min, replicates 1-3): 0.08563 µM and 0.07413 µM and 0.09575 µM
SPE-MS determined concentration of hydroxylated HIF-1a peptide (8 uM compound 22 as cosubstrate, time 4.19733 min, replicates 1-3): 0.0782 µM
SPE-MS determined concentration of hydroxylated HIF-1a peptide (16 uM compound 22, time 0.699833 min): 0.06076 µM and 0.05382 µM and 0.0426 µM
SPE-MS determined concentration of hydroxylated HIF-1a peptide (16 uM compound 22, time 2.098 min): 0.08485 µM and 0.09545 µM and 0.07537 µM
SPE-MS determined concentration of hydroxylated HIF-1a peptide (16 uM compound 22, time 2.797 min): 0.09668 µM and 0.1092 µM and 0.09109 µM
SPE-MS determined concentration of hydroxylated HIF-1a peptide (16 uM compound 22 as cosubstrate, time 3.49667 min, replicates 1-3): 0.105 µM and 0.1268 µM and 0.09176 µM
SPE-MS determined concentration of hydroxylated HIF-1a peptide (32 uM compound 22, time 0.699833 min): 0.06848 µM and 0.06274 µM and 0.0479 µM
SPE-MS determined concentration of hydroxylated HIF-1a peptide (32 uM compound 22, time 2.098 min): 0.1104 µM and 0.1151 µM and 0.1012 µM
SPE-MS determined concentration of hydroxylated HIF-1a peptide (32 uM compound 22, time 2.797 min): 0.1309 µM and 0.1405 µM and 0.1242 µM
SPE-MS determined concentration of hydroxylated HIF-1a peptide (32 uM compound 22 as cosubstrate, time 3.49667 min, replicates 1-3): 0.1431 µM and 0.1593 µM and 0.14 µM
SPE-MS determined concentration of hydroxylated HIF-1a peptide (64 uM compound 22, time 0 min): 0.02766 µM and 0.02 µM and 0.02798 µM
SPE-MS determined concentration of hydroxylated HIF-1a peptide (64 uM compound 22, time 0.699833 min): 0.06638 µM and 0.06107 µM and 0.07538 µM
SPE-MS determined concentration of hydroxylated HIF-1a peptide (64 uM compound 22, time 2.098 min): 0.1181 µM and 0.1293 µM and 0.1259 µM
SPE-MS determined concentration of hydroxylated HIF-1a peptide (64 uM compound 22, time 2.797 min): 0.146 µM and 0.1627 µM and 0.1536 µM
SPE-MS determined concentration of hydroxylated HIF-1a peptide (64 uM compound 22 as cosubstrate, time 3.49667 min, replicates 1-3): 0.169 µM and 0.1906 µM and 0.171 µM
SPE-MS determined concentration of hydroxylated HIF-1a peptide (128 uM compound 22, time 0.699833 min): 0.06651 µM and 0.09916 µM and 0.08534 µM
SPE-MS determined concentration of hydroxylated HIF-1a peptide (128 uM compound 22, time 2.098 min): 0.1375 µM and 0.1676 µM and 0.1537 µM
SPE-MS determined concentration of hydroxylated HIF-1a peptide (128 uM compound 22, time 2.797 min): 0.162 µM and 0.1955 µM and 0.1789 µM
SPE-MS determined concentration of hydroxylated HIF-1a peptide (128 uM compound 22 as cosubstrate, time 3.49667 min, replicates 1-3): 0.1878 µM and 0.2084 µM and 0.2042 µM
SPE-MS determined concentration of hydroxylated HIF-1a peptide (256 uM compound 22, time 0 min): 0.05949 µM and 0.04197 µM
SPE-MS determined concentration of hydroxylated HIF-1a peptide (256 uM compound 22, time 0.699833 min): 0.1 µM and 0.09439 µM
SPE-MS determined concentration of hydroxylated HIF-1a peptide (256 uM compound 22, time 2.098 min): 0.1712 µM and 0.1647 µM
SPE-MS determined concentration of hydroxylated HIF-1a peptide (256 uM compound 22, time 2.797 min): 0.1988 µM and 0.1857 µM
SPE-MS determined concentration of hydroxylated HIF-1a peptide (256 uM compound 22 as cosubstrate, time 3.49667 min, replicates 2-3 (replicate 1 empty)): 0.2377 µM and 0.2176 µM
slope of initial reaction rate (CA1-20, 16 μM 22): 0.001019 and 0.001398 and 0.001783
slope of initial reaction rate (CA1-20, 32 μM 22): 0.002274 and 0.002243 and 0.002771
slope of initial reaction rate (CA1-20, 64 μM 22): 0.003753 and 0.003305 and 0.003867
slope of initial reaction rate (CA1-20, 128 μM 22): 0.0046 and 0.003872 and 0.004223
slope of initial reaction rate (CA1-20, 256 μM 22): 0.004108 and 0.004197 and 0.004611
FIH Kmapp (CA1–20 substrate): 39 µM
slope of initial reaction rate (HIF-1a788-822, 8 μM 22): 0.000249 and 0.000403 and 0.000322
slope of initial reaction rate (HIF-1a788-822, 16 μM 22): 0.000332 and 0.000535 and 0.000447
slope of initial reaction rate (HIF-1a788-822, 32 μM 22): 0.000561 and 0.000718 and 0.000685
slope of initial reaction rate (HIF-1a788-822, 64 μM 22): 0.000686 and 0.000843 and 0.000711
slope of initial reaction rate (HIF-1a788-822, 128 μM 22): 0.000874 and 0.000824 and 0.000795
slope of initial reaction rate (HIF-1a788-822, 256 μM 22): 0.000833 and 0.000843
FIH Kmapp (HIF-1α788–822 substrate): 15 µM
Compound: O=C(O)C(=O)C1CCC(C(=O)O)C1 (stereo not shown) [compound 22, 3-(carboxycarbonyl)cyclopentane-1-carboxylic acid]
